Results as given in US11986465B1, “2-amino-4-(4-bromophenyl)-6-ethoxypyridine-3,5-dicarbonitrile as an antibacterial compound” (KING FAISAL UNIVERSITY, priority 2023, dated 2024).

Tests used:
Type in all cases: cell-based
Pseudomonas aeruginosa = test: Agar plate disc-diffusion antibacterial test, Pseudomonas aeruginosa; details: Gram negative
Experimental: (§1) The agar plate disc-diffusion method was applied. […] The discs were then placed onto the surface of agar plates (nutrient agar for bacteria) seeded with the test organism. Each plate contained 15 mL of the agar medium, previously seeded with 0.2 mL of the broth culture of each organism pregrown for 18 hours. The inhibition zones were measured in millimeters (mm). Discs impregnated with DMSO were used as a control, and its inhibition zone was subtracted from the tested compound's actual inhibition zone.
(§2) The antibacterial activity was screened against gram positive bacteria namely Bacillus cereus and Staphylococcus aureus and gram-negative bacterial strains namely Pseudomonas aeruginosa and Escherichia coli using ciprofloxacin as a reference, as shown in Table 1.

Staphylococcus aureus = test: Agar plate disc-diffusion antibacterial test, Staphylococcus aureus; details: Gram positive
Experimental: as §1, §2

Escherichia coli = test: Agar plate disc-diffusion antibacterial test, Escherichia coli; details: Gram negative
Experimental: as §1, §2

Bacillus cereus = test: Agar plate disc-diffusion antibacterial test, Bacillus cereus; details: Gram positive
Experimental: as §1, §2

[1] = A = concentration of comp. = 10,000 μL
[2] = B = concentration of comp. = 30.000 μL
[3] = C = concentration of comp. = 50,000 μL

SMILES: CCOc1nc(N)c(C#N)c(-c2ccc(Br)cc2)c1C#N [Compound 3, 2-amino-4-(4-bromophenyl)-6-ethoxypyridine-3,5-dicarbonitrile]
- inhibition zone, Pseudomonas aeruginosa, A (Pseudomonas aeruginosa; [1]): 23 mm
- inhibition zone, Pseudomonas aeruginosa, B (Pseudomonas aeruginosa; [2]): 33 mm
- inhibition zone, Pseudomonas aeruginosa, C (Pseudomonas aeruginosa; [3]): 39 mm
- inhibition zone, Staphylococcus aureus, A (Staphylococcus aureus; [1]): 19 mm
- inhibition zone, Staphylococcus aureus, B (Staphylococcus aureus; [2]): 26 mm
- inhibition zone, Staphylococcus aureus, C (Staphylococcus aureus; [3]): 31 mm
- inhibition zone, Escherichia coli, A (Escherichia coli; [1]): 37 mm
- inhibition zone, Escherichia coli, B (Escherichia coli; [2]): 40 mm
- inhibition zone, Escherichia coli, C (Escherichia coli; [3]): 44 mm
- inhibition zone, Bacillus Cereus, A (Bacillus cereus; [1]): 30 mm
- inhibition zone, Bacillus Cereus, B (Bacillus cereus; [2]): 36 mm
- inhibition zone, Bacillus Cereus, C (Bacillus cereus; [3]): 41 mm
